Data: US20230203095A1, “BIOLOGICAL PEPTIDE FOR TREATING LUNG DISEASES AND APPLICATION THEREOF” (SHANGHAI INSTITUTE OF PHARMACEUTICAL INDUSTRY CO., LTD., priority 2019, published 2023)
Where “and” joins values, the source holds several entries; their conditions need not be identical. Equal entries are not always repeated. Peptide text beside a SMILES is read from it. * marks the point of attachment. X1 = CC(=O)N[C@H]1C(*)O[C@H](CO)[C@@H](O)[C@@H]1O

Assay: Plasma drug concentrations and pharmacokinetics after a single intravenous or subcutaneous injection of SIPI-G9 in SD rats
Details: for level at 3 h: 180 min; for level at 4 h: 240 min; for clearance: CL; for MRT last: MRT0-t
Experimental: Routes: single back subcutaneous injection and single tail vein injection;
Orbital blood was collected at different time points before and after administration. […] High concentration samples were diluted with blank plasma.
Column: SHIM-PACK GISS C18 (2.1 × 100 mm, 1.9 µm); injection volume: 20 µL; mobile phase: phase A: 0.2% acetic acid in water; phase B: methanol, gradient elution (see Table 16 for details);
The ion source is electrospray ionization source (ESI); the drying gas (N2) temperature is 550° C.; the electrospray voltage is 5500 V; the detection method is positive ion detection; the scanning method is the selective reaction monitoring (MRM) method, and the scanning time is 0.15 s.
50 µL plasma was taken and 5 µL internal standard solution (DX07 (His-Leu-Glu-Thr-Glu-Leu-His) 100 ng/mL) was added. After that, 150 µL of methanol was added to precipitate proteins, then centrifuged at 13,000 rpm for 5 min, and 160 µL supernatant was taken and dried with 40° C. N2, then reconstituted with 75 µL of 0.1% formic acid aqueous solution.
Pharmacokinetic parameters were calculated using the non-compartmental model of DAS 2.0 software. Both Cmax and Tmax are measured values; AUC, T½, CL and Vz are calculated by DAS 2.0.

[1] = SIPI-G9 1 mg/kg i.v., SD rats, individual rats, 1 mg/kg
[2] = male, SD, rat, plasma, sc, 5 mg/kg, Plasma G-9 concentration, Mean, SIPI-G9 5 mg/kg s.c., SD rats, n=3
[3] = male, SD, rat, plasma, sc, 5 mg/kg, Plasma G-9 concentration, SIPI-G9 5 mg/kg single subcutaneous injection, SD rats, individual rats
[4] = rat, in vivo, iv, 1 mg/kg, Mean
[5] = rat, in vivo, sc, 5 mg/kg, Mean

Structure (SMILES): CC(=O)N[C@H]1C(OC[C@H](NC(=O)[C@@H](NC(=O)[C@H](Cc2ccc(O)cc2)NC(=O)[C@@H](NC(=O)[C@H](CCC(N)=O)NC(=O)CN)[C@@H](C)OC2O[C@H](CO)[C@@H](O)[C@H](O)[C@H]2NC(C)=O)[C@@H](C)O)C(=O)NCC(=O)O)O[C@H](CO)[C@@H](O)[C@@H]1O (some centres unmarked) [SIPI-G9, GQT(Glc)YTS(Glc)G] (H-GQT(X1)YTS(X1)G-OH)
- T1/2 [1]: 8.50 min and 7.50 min
- Vd [1]: 2.23 L/kg and 1.29 L/kg
- Plasma G-9 concentration (SIPI-G9 1 mg/kg single intravenous injection, SD rats, 3 min, individual rats, 1 mg/kg): 714 ng/mL and 573 ng/mL and 737 ng/mL
- Plasma G-9 concentration (SIPI-G9 1 mg/kg single intravenous injection, SD rats, 6 min, individual rats, 1 mg/kg): 265 ng/mL and 231 ng/mL and 295 ng/mL
- Plasma G-9 concentration (SIPI-G9 1 mg/kg single intravenous injection, SD rats, 10 min, individual rats, 1 mg/kg): 124 ng/mL and 120 ng/mL and 377 ng/mL
- Plasma G-9 concentration (SIPI-G9 1 mg/kg single intravenous injection, SD rats, 20 min, individual rats, 1 mg/kg): 33.5 ng/mL and 31.6 ng/mL and 80.0 ng/mL
- Plasma G-9 concentration (SIPI-G9 1 mg/kg single intravenous injection, SD rats, 40 min, individual rats, 1 mg/kg): 6.09 ng/mL and 5.68 ng/mL and 6.78 ng/mL
- Plasma G-9 concentration (SIPI-G9 1 mg/kg single intravenous injection, SD rats, 60 min, individual rats, 1 mg/kg): 1.33 ng/mL and 1.21 ng/mL and 2.00 ng/mL
- Plasma G-9 concentration (SIPI-G9 5 mg/kg single subcutaneous injection, SD rats, 0 min, individual rats): 0 ng/mL
- Plasma G-9 concentration (SIPI-G9 5 mg/kg single subcutaneous injection, SD rats, 40 min, individual rats, 5 mg/kg): 229 ng/mL
- Plasma G-9 concentration (SIPI-G9 5 mg/kg single subcutaneous injection, SD rats, 120 min, individual rats, 5 mg/kg): 28.5 ng/mL and 33.5 ng/mL and 24.5 ng/mL
- AUC(0-t) (male, SD, rat, in vivo, iv, 1 mg/kg): 114 ng·h/mL
- AUC(0-t) (male, SD, rat, in vivo, sc, 5 mg/kg): 490 ng·h/mL
- level at 0.05 h (male, SD, rat, plasma, iv, 1 mg/kg, Plasma G-9 concentration, Mean, SIPI-G9 1 mg/kg i.v., SD rats, 3 min, n=3): 675 ng/mL
- level at 0.1 h (male, SD, rat, plasma, iv, 1 mg/kg, Plasma G-9 concentration, Mean, SIPI-G9 1 mg/kg i.v., SD rats, 6 min, n=3): 264 ng/mL
- level at 10 min (male, SD, rat, plasma, iv, 1 mg/kg, Plasma G-9 concentration, Mean, SIPI-G9 1 mg/kg i.v., SD rats, 10 min, n=3): 207 ng/mL
- level at 20 min (male, SD, rat, plasma, iv, 1 mg/kg, Plasma G-9 concentration, Mean, SIPI-G9 1 mg/kg i.v., SD rats, 20 min, n=3): 48.4 ng/mL
- level at 40 min (male, SD, rat, plasma, iv, 1 mg/kg, Plasma G-9 concentration, Mean, SIPI-G9 1 mg/kg i.v., SD rats, 40 min, n=3): 6.18 ng/mL
- level at 1 h (male, SD, rat, plasma, iv, 1 mg/kg, Plasma G-9 concentration, Mean, SIPI-G9 1 mg/kg i.v., SD rats, 60 min, n=3): 1.51 ng/mL
- level at 0.05 h (male, SD, rat, plasma, sc, 5 mg/kg, Plasma G-9 concentration, Mean, SIPI-G9 5 mg/kg s.c., SD rats, 3 min, n=3): 699 ng/mL
- level at 0.1 h (male, SD, rat, plasma, sc, 5 mg/kg, Plasma G-9 concentration, Mean, SIPI-G9 5 mg/kg s.c., SD rats, 6 min, n=3): 1020 ng/mL
- level at 10 min (male, SD, rat, plasma, sc, 5 mg/kg, Plasma G-9 concentration, Mean, SIPI-G9 5 mg/kg s.c., SD rats, 10 min, n=3): 796 ng/mL
- level at 20 min (male, SD, rat, plasma, sc, 5 mg/kg, Plasma G-9 concentration, Mean, SIPI-G9 5 mg/kg s.c., SD rats, 20 min, n=3): 408 ng/mL
- level at 40 min (male, SD, rat, plasma, sc, 5 mg/kg, Plasma G-9 concentration, Mean, SIPI-G9 5 mg/kg s.c., SD rats, 40 min, n=3): 228 ng/mL
- level at 1 h (male, SD, rat, plasma, sc, 5 mg/kg, Plasma G-9 concentration, Mean, SIPI-G9 5 mg/kg s.c., SD rats, 60 min, n=3): 131 ng/mL
- level at 2 h (male, SD, rat, plasma, sc, 5 mg/kg, Plasma G-9 concentration, Mean, SIPI-G9 5 mg/kg s.c., SD rats, 120 min, n=3): 28.8 ng/mL
- level at 3 h [2]: 6.01 ng/mL
- level at 4 h [2]: 0.708 ng/mL
- level at 0.05 h (male, SD, rat, plasma, sc, 5 mg/kg, Plasma G-9 concentration, SIPI-G9 5 mg/kg single subcutaneous injection, SD rats, 3 min, individual rats): 758 ng/mL
- level at 0.1 h (male, SD, rat, plasma, sc, 5 mg/kg, Plasma G-9 concentration, SIPI-G9 5 mg/kg single subcutaneous injection, SD rats, 6 min, individual rats): 904 ng/mL
- level at 10 min (male, SD, rat, plasma, sc, 5 mg/kg, Plasma G-9 concentration, SIPI-G9 5 mg/kg single subcutaneous injection, SD rats, 10 min, individual rats): 633 ng/mL
- level at 20 min (male, SD, rat, plasma, sc, 5 mg/kg, Plasma G-9 concentration, SIPI-G9 5 mg/kg single subcutaneous injection, SD rats, 20 min, individual rats): 324 ng/mL
- level at 40 min (male, SD, rat, plasma, sc, 5 mg/kg, Plasma G-9 concentration, SIPI-G9 5 mg/kg single subcutaneous injection, SD rats, 40 min, individual rats): 230 ng/mL
- level at 1 h (male, SD, rat, plasma, sc, 5 mg/kg, Plasma G-9 concentration, SIPI-G9 5 mg/kg single subcutaneous injection, SD rats, 60 min, individual rats): 118 ng/mL
- level at 3 h [3]: 6.6 ng/mL
- level at 4 h [3]: 0.807 ng/mL
- Fa (absolute bioavailability) (rat, in vivo): 96.6%
- bioavailability (rat, in vivo, Fa (absolute bioavailability)): 79.2%
- clearance (rat, in vivo, iv, 1 mg/kg): 151 mL/min/kg
- clearance [4]: 151 mL/min/kg
- Cmax (rat, in vivo, iv, 1 mg/kg): 714 ng/mL
- Cmax [4]: 675 ng/mL
- MRT last (rat, in vivo, iv, 1 mg/kg): 5.49 min
- MRT last [4]: 6.63 min
- half-life (rat, in vivo, iv, 1 mg/kg, T1/2, Mean, SIPI-G9 1 mg/kg i.v., SD rats, n=3): 8.2 min
- half-life (rat, in vivo, iv, 1 mg/kg, T1/2, SIPI-G9 1 mg/kg i.v., SD rats, individual rats): 8.59 min
- Tmax (rat, in vivo, iv, 1 mg/kg): 3 min
- Tmax [4]: 3 min
- Vd (rat, in vivo, iv, 1 mg/kg, Vd, Mean, SIPI-G9 1 mg/kg i.v., SD rats, n=3): 1.8 L/kg
- Vd (rat, in vivo, iv, 1 mg/kg, Vd, SIPI-G9 1 mg/kg i.v., SD rats, individual rats): 1.87 L/kg
- Cmax (rat, in vivo, sc, 5 mg/kg): 904 ng/mL
- Cmax [5]: 1020 ng/mL
- MRT last (rat, in vivo, sc, 5 mg/kg): 34.3 min
- MRT last [5]: 33.9 min
- Tmax (rat, in vivo, sc, 5 mg/kg): 6 min
- Tmax [5]: 7 min
